Results taken from US20240368565A1, “COMPLEMENTATION-BASED TAGS AND REPORTERS FOR DUAL-MODALITY LABELING” (Promega Corporation, priority 2023, published 2024).
Several values for one entry are separate records, joined by “and”; a condition that tells them apart may be missing. Equal values may be shown once. Peptide text beside a SMILES is read from it. * marks the point of attachment. Biotin = O=C1N[C@H]2[C@H](CS[C@H]2CCCCC(=O)*)N1

Columns and labels:
[1] = molecular target: HaloTag[22-297](M2F + K140E)-12xGly/Ser-LgBiT-3xGly/Ser-6xHis (Rhodococcus rhodochrous, UniProt P0A3G2, A155T/A167V/A172T/A224E/C128F/C176G/D78G/E257K/H272N/K175M/K195N/L47V/L88M/N227D/S58T/T264A/Y273L/Y87F); assay: biochemical; assay type: binding; conditions: KD, biotinylated peptide on streptavidin probes, PBST, 25° C.
[2] = molecular target: HaloTag[22-297](M2F + F148M + V177E)-12xGly/Ser-LgBiT-3xGly/Ser-6xHis (Rhodococcus rhodochrous, UniProt P0A3G2, A155T/A167V/A172T/A224E/C128F/C176G/D78G/E160K/E257K/F168M/H272N/K175M/K195N/L47V/L88M/N227D/S58T/T264A/V197E/Y273L/Y87F); assay: biochemical; assay type: binding
[3] = molecular target: HaloTag[22-297](M2F)-12xGly/Ser-LgBiT-3xGly/Ser-6xHis (Rhodococcus rhodochrous, UniProt P0A3G2, A155T/A167V/A172T/A224E/C128F/C176G/D78G/E160K/E257K/H272N/K175M/K195N/L47V/L88M/N227D/S58T/T264A/Y273L/Y87F); assay: biochemical; assay type: binding
[4] = molecular target: HaloTag[22-297](M2F + D53G + V177E)-12xGly/Ser-LgBiT-3xGly/Ser-6xHis (Rhodococcus rhodochrous, UniProt P0A3G2, A155T/A167V/A172T/A224E/C128F/C176G/D73G/D78G/E160K/E257K/H272N/K175M/K195N/L47V/L88M/N227D/S58T/T264A/V197E/Y273L/Y87F); assay: biochemical; assay type: binding
[5] = molecular target: HaloTag[22-297](M2F + D53G + K140E)-12xGly/Ser-LgBiT-3xGly/Ser-6xHis (Rhodococcus rhodochrous, UniProt P0A3G2, A155T/A167V/A172T/A224E/C128F/C176G/D73G/D78G/E257K/H272N/K175M/K195N/L47V/L88M/N227D/S58T/T264A/Y273L/Y87F); assay: biochemical; assay type: binding
[6] = molecular target: HaloTag[22-297](M2F)-12×Gly/Ser-LgBiT-6×His (Rhodococcus rhodochrous, UniProt P0A3G2, A155T/A167V/A172T/A224E/C128F/C176G/D78G/E160K/E257K/H272N/K175M/K195N/L47V/L88M/N227D/S58T/T264A/Y273L/Y87F); assay type: biochemical; conditions: purified reporter, 30 minutes at 4° C., furimazine

Chain of HaloTag[22-297](M2F + K140E)-12xGly/Ser-LgBiT-3xGly/Ser-6xHis (P0A3G2 23-290 with tags or gaps with the stated changes): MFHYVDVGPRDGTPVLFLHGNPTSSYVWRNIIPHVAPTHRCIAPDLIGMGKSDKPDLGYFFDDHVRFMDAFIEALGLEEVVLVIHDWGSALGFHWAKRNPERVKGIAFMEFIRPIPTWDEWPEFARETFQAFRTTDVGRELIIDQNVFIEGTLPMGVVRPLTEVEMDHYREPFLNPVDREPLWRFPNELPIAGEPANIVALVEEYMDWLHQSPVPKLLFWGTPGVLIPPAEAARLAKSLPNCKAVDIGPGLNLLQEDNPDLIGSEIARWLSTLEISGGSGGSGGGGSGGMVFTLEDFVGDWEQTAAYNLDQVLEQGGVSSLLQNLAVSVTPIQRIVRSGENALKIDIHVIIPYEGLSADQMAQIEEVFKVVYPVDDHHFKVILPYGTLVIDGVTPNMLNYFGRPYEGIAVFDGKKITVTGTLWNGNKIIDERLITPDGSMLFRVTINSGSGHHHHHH
Chain of HaloTag[22-297](M2F + F148M + V177E)-12xGly/Ser-LgBiT-3xGly/Ser-6xHis (P0A3G2 23-290 with tags or gaps with the stated changes): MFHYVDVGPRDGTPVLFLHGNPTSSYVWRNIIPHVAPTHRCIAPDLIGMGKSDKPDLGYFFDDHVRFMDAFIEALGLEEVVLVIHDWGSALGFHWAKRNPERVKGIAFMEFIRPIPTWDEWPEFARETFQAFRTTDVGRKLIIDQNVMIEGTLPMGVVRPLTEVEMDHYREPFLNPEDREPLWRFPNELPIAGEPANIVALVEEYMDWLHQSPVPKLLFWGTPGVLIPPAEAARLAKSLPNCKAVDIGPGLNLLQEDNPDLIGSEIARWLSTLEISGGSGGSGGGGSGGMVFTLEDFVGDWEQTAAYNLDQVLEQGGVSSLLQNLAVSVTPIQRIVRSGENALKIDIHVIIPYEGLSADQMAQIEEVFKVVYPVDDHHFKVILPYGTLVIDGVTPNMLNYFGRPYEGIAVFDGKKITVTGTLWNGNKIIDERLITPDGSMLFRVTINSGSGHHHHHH
Chain of HaloTag[22-297](M2F + D53G + V177E)-12xGly/Ser-LgBiT-3xGly/Ser-6xHis (P0A3G2 23-290 with tags or gaps with the stated changes): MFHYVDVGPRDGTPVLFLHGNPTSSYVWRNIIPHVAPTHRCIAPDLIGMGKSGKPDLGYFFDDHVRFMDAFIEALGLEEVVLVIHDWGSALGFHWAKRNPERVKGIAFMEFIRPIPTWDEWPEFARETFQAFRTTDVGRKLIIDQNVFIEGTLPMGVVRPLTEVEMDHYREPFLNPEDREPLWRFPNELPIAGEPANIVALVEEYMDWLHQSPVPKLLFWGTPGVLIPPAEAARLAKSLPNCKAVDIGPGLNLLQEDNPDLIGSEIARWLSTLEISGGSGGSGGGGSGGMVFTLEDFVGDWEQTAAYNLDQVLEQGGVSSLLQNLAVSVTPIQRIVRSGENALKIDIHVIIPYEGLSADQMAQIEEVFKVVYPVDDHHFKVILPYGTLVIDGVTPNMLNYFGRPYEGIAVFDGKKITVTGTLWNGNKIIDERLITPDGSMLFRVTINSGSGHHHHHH
Chain of HaloTag[22-297](M2F + D53G + K140E)-12xGly/Ser-LgBiT-3xGly/Ser-6xHis (P0A3G2 23-290 with tags or gaps with the stated changes): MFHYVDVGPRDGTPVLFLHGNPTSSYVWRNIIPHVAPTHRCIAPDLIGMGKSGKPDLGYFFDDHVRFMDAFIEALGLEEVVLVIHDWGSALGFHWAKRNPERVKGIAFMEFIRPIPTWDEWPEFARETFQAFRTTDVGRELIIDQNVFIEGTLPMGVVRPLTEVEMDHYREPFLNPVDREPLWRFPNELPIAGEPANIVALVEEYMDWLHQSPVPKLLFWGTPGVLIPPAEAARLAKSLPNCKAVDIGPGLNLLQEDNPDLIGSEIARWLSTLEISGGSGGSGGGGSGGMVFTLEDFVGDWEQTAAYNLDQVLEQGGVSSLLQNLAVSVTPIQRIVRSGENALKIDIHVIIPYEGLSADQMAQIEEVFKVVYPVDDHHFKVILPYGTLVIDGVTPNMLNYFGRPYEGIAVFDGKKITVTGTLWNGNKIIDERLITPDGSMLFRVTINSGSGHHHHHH
Chain of HaloTag[22-297](M2F)-12xGly/Ser-LgBiT-3xGly/Ser-6xHis (P0A3G2 23-290 with tags or gaps with the stated changes): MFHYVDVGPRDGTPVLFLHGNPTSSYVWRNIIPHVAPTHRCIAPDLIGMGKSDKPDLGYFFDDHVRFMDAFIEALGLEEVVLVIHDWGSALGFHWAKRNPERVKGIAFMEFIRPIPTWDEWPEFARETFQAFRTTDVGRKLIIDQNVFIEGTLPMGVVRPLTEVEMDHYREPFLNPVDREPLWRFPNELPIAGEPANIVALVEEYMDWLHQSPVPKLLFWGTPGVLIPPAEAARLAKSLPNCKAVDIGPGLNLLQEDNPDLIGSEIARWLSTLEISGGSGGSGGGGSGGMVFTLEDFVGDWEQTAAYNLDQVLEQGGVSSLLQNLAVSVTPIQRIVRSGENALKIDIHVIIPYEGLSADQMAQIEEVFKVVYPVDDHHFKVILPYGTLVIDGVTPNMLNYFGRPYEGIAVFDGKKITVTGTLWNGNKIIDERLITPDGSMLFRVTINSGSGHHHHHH

Row | Compound | Kd [1] | Kd [2] [nM] | Kd [3] [nM] | Kd [4] [nM] | Kd [5] [nM] | Complementing the reporter to enhance luminescence signal [6]
1 | CC[C@H](C)[C@H](NC(=O)[C@H](CCCCN)NC(=O)[C@H](CCCCN)NC(=O)[C@H](Cc1ccccc1)NC(=O)[C@H](CC(C)C)NC(=O)[C@H](CCCNC(=N)N)NC(=O)[C@H](Cc1c[nH]c2ccccc12)NC(=O)CNC(=O)[C@H](CO)NC(=O)[C@@H](NC(=O)[C@H](CO)NC(=O)[C@@H](NC(=O)CNC(=O)[C@H](CO)NC(=O)CNC(=O)CNC(=O)CNC(=O)[C@H](CC(C)C)NC(=O)[C@@H](NC(=O)[C@H](CCC(=O)O)NC(=O)[C@@H](NC(=O)[C@H](Cc1ccc(O)cc1)NC(=O)[C@H](Cc1c[nH]cn1)NC(=O)[C@@H]1CCCN1C(=O)[C@H](CC(=O)O)NC(=O)[C@H](Cc1ccccc1)NC(=O)[C@@H]1CCCN1C(=O)[C@H](Cc1ccccc1)NC(=O)CNC(=O)[C@@H](NC(=O)[C@H](CCCCN)NC(=O)[C@@H](NC(=O)[C@H](CCC(=O)O)NC(=O)CCCC[C@@H]1SC[C@@H]2NC(=O)N[C@@H]21)[C@@H](C)CC)[C@@H](C)O)C(C)C)C(C)C)C(C)C)C(C)C)C(=O)N[C@@H](CO)C(=O)O [HaloTag[3-19](G3K)-4xGly/Ser-VSHiBiT] (Biotin-EIKTGFPFDPHYVEVLGGGSGVSVSGWRLFKKIS-OH) | 0.264 nM | 0.102 |  |  |  | 
2 | CC[C@H](C)[C@H](NC(=O)[C@H](CCC(=O)O)NC(=O)CCCC[C@@H]1SC[C@@H]2NC(=O)N[C@@H]21)C(=O)NCC(=O)N[C@H](C(=O)N[C@@H](CCCNC(=N)N)C(=O)N[C@@H](Cc1ccccc1)C(=O)N1CCC[C@H]1C(=O)N[C@@H](Cc1ccccc1)C(=O)N[C@@H](CC(=O)O)C(=O)N1CCC[C@H]1C(=O)N[C@@H](Cc1c[nH]cn1)C(=O)N[C@@H](Cc1ccc(O)cc1)C(=O)N[C@H](C(=O)N[C@@H](CCC(=O)O)C(=O)N[C@H](C(=O)N[C@@H](CC(C)C)C(=O)NCC(=O)NCC(=O)NCC(=O)N[C@@H](CO)C(=O)NCC(=O)N[C@H](C(=O)N[C@@H](CO)C(=O)N[C@H](C(=O)N[C@@H](CO)C(=O)NCC(=O)N[C@@H](Cc1c[nH]c2ccccc12)C(=O)N[C@@H](CCCNC(=N)N)C(=O)N[C@@H](CC(C)C)C(=O)N[C@@H](Cc1ccccc1)C(=O)N[C@@H](CCCCN)C(=O)N[C@@H](CCCCN)C(=O)N[C@H](C(=O)N[C@@H](CO)C(=O)O)[C@@H](C)CC)C(C)C)C(C)C)C(C)C)C(C)C)[C@@H](C)O [HaloTag[3-19](G5R)-4xGly/Ser-VSHiBiT] (Biotin-EIGTRFPFDPHYVEVLGGGSGVSVSGWRLFKKIS-OH) |  | 0.485 |  |  |  | 
3 | CC[C@H](C)[C@H](NC(=O)[C@H](CCCCN)NC(=O)[C@H](CCCCN)NC(=O)[C@H](Cc1ccccc1)NC(=O)[C@H](CC(C)C)NC(=O)[C@H](CCCNC(=N)N)NC(=O)[C@H](Cc1c[nH]c2ccccc12)NC(=O)CNC(=O)[C@H](CO)NC(=O)[C@@H](NC(=O)[C@H](CO)NC(=O)[C@@H](NC(=O)CNC(=O)[C@H](CO)NC(=O)CNC(=O)CNC(=O)CNC(=O)[C@H](CC(C)C)NC(=O)[C@@H](NC(=O)[C@H](CCC(=O)O)NC(=O)[C@@H](NC(=O)[C@H](Cc1ccc(O)cc1)NC(=O)[C@H](Cc1c[nH]cn1)NC(=O)[C@@H]1CCCN1C(=O)[C@H](CC(=O)O)NC(=O)[C@H](Cc1ccccc1)NC(=O)[C@@H]1CCCN1C(=O)[C@H](Cc1ccccc1)NC(=O)CNC(=O)[C@@H](NC(=O)CNC(=O)[C@H](CCCNC(=N)N)NC(=O)[C@H](CCC(=O)O)NC(=O)CCCC[C@@H]1SC[C@@H]2NC(=O)N[C@@H]21)[C@@H](C)O)C(C)C)C(C)C)C(C)C)C(C)C)C(=O)N[C@@H](CO)C(=O)O [HaloTag[3-19](I2R)-4xGly/Ser-VSHiBiT] (Biotin-ERGTGFPFDPHYVEVLGGGSGVSVSGWRLFKKIS-OH) | 0.684 nM and 0.466 nM | 0.509 | 1.61 | 0.669 | 0.576 | 
4 | KFNDQWNYRANFLKIRRVSVSGWRLFKKIS [Peptide 1061] |  |  |  |  |  | still functional
